{"source": "ChEMBL document CHEMBL5303573", "about": "“Mapping human microbiome drug metabolism by gut bacteria and their genes” (Nature, 2019)", "key": {"[1]": {"test": "The drug is tested on Clostridium spiroforme strain: DSM1552 for biotransformation. The drug concentrations were measured before and after a 12-h incubation by liquid-chromatography-coupled mass spectrometry (LC–MS)", "conditions": "thomasclavelia spiroformis, 2 µM"}, "[2]": {"test": "The drug is tested on Collinsella intestinalis strain: DSM13280 for biotransformation. The drug concentrations were measured before and after a 12-h incubation by liquid-chromatography-coupled mass spectrometry (LC–MS)", "conditions": "2 µM"}, "[3]": {"test": "The drug is tested on Providencia alcalifaciens strain: DSM30120 for biotransformation. The drug concentrations were measured before and after a 12-h incubation by liquid-chromatography-coupled mass spectrometry (LC–MS)", "conditions": "2 µM"}, "[4]": {"test": "The drug is tested on Eubacterium biforme strain: DSM3989 for biotransformation. The drug concentrations were measured before and after a 12-h incubation by liquid-chromatography-coupled mass spectrometry (LC–MS)", "conditions": "holdemanella biformis, 2 µM"}, "[5]": {"conditions": "parabacteroides johnsonii, 12 h, 2 µM", "description": "The drug is tested on Parabacteroides johnsonii strain: DSM18315 for biotransformation. The drug concentrations were measured before and after a 12-h incubation by liquid-chromatography-coupled mass spectrometry (LC–MS)"}, "[6]": {"test": "The drug is tested on Proteus penneri strain: ATCC35198 for biotransformation. The drug concentrations were measured before and after a 12-h incubation by liquid-chromatography-coupled mass spectrometry (LC–MS)", "conditions": "2 µM"}, "[7]": {"test": "The drug is tested on Bacteroides fragilis strain: ATCC43859 for biotransformation. The drug concentrations were measured before and after a 12-h incubation by liquid-chromatography-coupled mass spectrometry (LC–MS)", "conditions": "2 µM"}, "[8]": {"test": "The drug is tested on Clostridium hathewayi strain: DSM13479 for biotransformation. The drug concentrations were measured before and after a 12-h incubation by liquid-chromatography-coupled mass spectrometry (LC–MS)", "conditions": "hungatella hathewayi, 2 µM"}, "[9]": {"conditions": "clostridioides difficile, 12 h, 2 µM", "description": "The drug is tested on Clostridium difficile strain: 120 for biotransformation. The drug concentrations were measured before and after a 12-h incubation by liquid-chromatography-coupled mass spectrometry (LC–MS)"}, "[10]": {"test": "The drug is tested on Salmonella typhimurium strain: LT2 for biotransformation. The drug concentrations were measured before and after a 12-h incubation by liquid-chromatography-coupled mass spectrometry (LC–MS)", "conditions": "salmonella enterica subsp. enterica, 2 µM"}, "[11]": {"test": "The drug is tested on Alistipes indistinctus strain: DSM22520 for biotransformation. The drug concentrations were measured before and after a 12-h incubation by liquid-chromatography-coupled mass spectrometry (LC–MS)", "conditions": "2 µM"}, "[12]": {"conditions": "akkermansia muciniphila, 12 h, 2 µM", "description": "The drug is tested on Akkermansia muciniphila strain: ATCC BAA-835 for biotransformation. The drug concentrations were measured before and after a 12-h incubation by liquid-chromatography-coupled mass spectrometry (LC–MS)"}, "[13]": {"conditions": "victivallis vadensis, 12 h, 2 µM", "description": "The drug is tested on Victivallis vadensis strain: ATCC BAA-548 for biotransformation. The drug concentrations were measured before and after a 12-h incubation by liquid-chromatography-coupled mass spectrometry (LC–MS)"}, "[14]": {"test": "The drug is tested on Eggerthella lenta strain: ATCC25559 for biotransformation. The drug concentrations were measured before and after a 12-h incubation by liquid-chromatography-coupled mass spectrometry (LC–MS)", "conditions": "2 µM"}, "[15]": {"test": "The drug is tested on Bacteroides fragilis strain: T(B)9 for biotransformation. The drug concentrations were measured before and after a 12-h incubation by liquid-chromatography-coupled mass spectrometry (LC–MS)", "conditions": "2 µM"}}}
{"compound": "OC(CCN1CCCCC1)(c1ccccc1)C1CCCCC1", "note": "(centres undefined) [TRIHEXYPHENIDYL]", "values": [{"measurement": "Bacterial Biotransformation", "setting": "[1]", "result": "Compound NOT metabolized"}, {"measurement": "Bacterial Biotransformation", "setting": "[2]", "result": "Compound NOT metabolized"}, {"measurement": "Bacterial Biotransformation", "setting": "[3]", "result": "Compound NOT metabolized"}, {"measurement": "Bacterial Biotransformation", "setting": "[4]", "result": "Compound NOT metabolized"}, {"measurement": "Bacterial Biotransformation", "setting": "[5]", "result": "Compound NOT metabolized"}, {"measurement": "Bacterial Biotransformation", "setting": "[6]", "result": "Compound NOT metabolized"}, {"measurement": "Bacterial Biotransformation", "setting": "[7]", "result": "Compound NOT metabolized"}]}
{"compound": "Nc1c2c(nc3ccccc13)CCCC2", "note": "[TACRINE]", "values": [{"measurement": "Bacterial Biotransformation", "setting": "[8]", "result": "Compound NOT metabolized"}, {"measurement": "Bacterial Biotransformation", "setting": "[1]", "result": "Compound NOT metabolized"}, {"measurement": "Bacterial Biotransformation", "setting": "[9]", "result": "Compound NOT metabolized"}, {"measurement": "Bacterial Biotransformation", "setting": "[2]", "result": "Compound NOT metabolized"}, {"measurement": "Bacterial Biotransformation", "setting": "[10]", "result": "Compound NOT metabolized"}, {"measurement": "Bacterial Biotransformation", "setting": "[6]", "result": "Compound NOT metabolized"}, {"measurement": "Bacterial Biotransformation", "setting": "[11]", "result": "Compound NOT metabolized"}]}
{"compound": "CC(C)(C)NC[C@H](O)COc1nsnc1N1CCOCC1.O=C(O)/C=C\\C(=O)O", "note": "[TIMOLOL MALEATE]", "values": [{"measurement": "Bacterial Biotransformation", "setting": "[8]", "result": "Compound NOT metabolized"}, {"measurement": "Bacterial Biotransformation", "setting": "[1]", "result": "Compound NOT metabolized"}, {"measurement": "Bacterial Biotransformation", "setting": "[9]", "result": "Compound NOT metabolized"}, {"measurement": "Bacterial Biotransformation", "setting": "[2]", "result": "Compound NOT metabolized"}, {"measurement": "Bacterial Biotransformation", "setting": "[5]", "result": "Compound NOT metabolized"}, {"measurement": "Bacterial Biotransformation", "setting": "[12]", "result": "Compound NOT metabolized"}]}
{"compound": "OCCOCCN1CCN(C2=Nc3ccccc3Sc3ccccc32)CC1", "note": "[QUETIAPINE]", "values": [{"measurement": "Bacterial Biotransformation", "setting": "[8]", "result": "Compound NOT metabolized"}, {"measurement": "Bacterial Biotransformation", "setting": "[13]", "result": "Compound NOT metabolized"}, {"measurement": "Bacterial Biotransformation", "setting": "[2]", "result": "Compound NOT metabolized"}, {"measurement": "Bacterial Biotransformation", "setting": "[10]", "result": "Compound NOT metabolized"}, {"measurement": "Bacterial Biotransformation", "setting": "[3]", "result": "Compound NOT metabolized"}, {"measurement": "Bacterial Biotransformation", "setting": "[4]", "result": "Compound NOT metabolized"}, {"measurement": "Bacterial Biotransformation", "setting": "[6]", "result": "Compound NOT metabolized"}, {"measurement": "Bacterial Biotransformation", "setting": "[11]", "result": "Compound NOT metabolized"}, {"measurement": "Bacterial Biotransformation", "setting": "[12]", "result": "Compound NOT metabolized"}, {"measurement": "Bacterial Biotransformation", "setting": "[7]", "result": "Compound NOT metabolized"}]}
{"compound": "CC(C)OC(=O)C(C)(C)Oc1ccc(C(=O)c2ccc(Cl)cc2)cc1", "note": "[FENOFIBRATE]", "values": [{"measurement": "Bacterial Biotransformation", "setting": "[8]", "result": "Compound metabolized"}, {"measurement": "Bacterial Biotransformation", "setting": "[1]", "result": "Compound NOT metabolized"}, {"measurement": "Bacterial Biotransformation", "setting": "[9]", "result": "Compound metabolized"}, {"measurement": "Bacterial Biotransformation", "setting": "[2]", "result": "Compound NOT metabolized"}, {"measurement": "Bacterial Biotransformation", "setting": "[5]", "result": "Compound metabolized"}, {"measurement": "Bacterial Biotransformation", "setting": "[7]", "result": "Compound NOT metabolized"}]}
{"compound": "O=C([O-])C[C@H](O)C[C@H](O)/C=C/c1c(C2CC2)nc2ccccc2c1-c1ccc(F)cc1.O=C([O-])C[C@H](O)C[C@H](O)/C=C/c1c(C2CC2)nc2ccccc2c1-c1ccc(F)cc1.[Ca+2]", "note": "[PITAVASTATIN CALCIUM]", "values": [{"measurement": "Bacterial Biotransformation", "setting": "[1]", "result": "Compound NOT metabolized"}, {"measurement": "Bacterial Biotransformation", "setting": "[13]", "result": "Compound NOT metabolized"}, {"measurement": "Bacterial Biotransformation", "setting": "[9]", "result": "Compound NOT metabolized"}, {"measurement": "Bacterial Biotransformation", "setting": "[2]", "result": "Compound NOT metabolized"}, {"measurement": "Bacterial Biotransformation", "setting": "[5]", "result": "Compound NOT metabolized"}, {"measurement": "Bacterial Biotransformation", "setting": "[11]", "result": "Compound NOT metabolized"}, {"measurement": "Bacterial Biotransformation", "setting": "[12]", "result": "Compound NOT metabolized"}, {"measurement": "Bacterial Biotransformation", "setting": "[7]", "result": "Compound NOT metabolized"}, {"measurement": "Bacterial Biotransformation", "setting": "[14]", "result": "Compound NOT metabolized"}]}
{"compound": "CCCCC1=NC2(CCCC2)C(=O)N1Cc1ccc(-c2ccccc2-c2nnn[nH]2)cc1", "note": "[IRBESARTAN]", "values": [{"measurement": "Bacterial Biotransformation", "setting": "[8]", "result": "Compound metabolized"}, {"measurement": "Bacterial Biotransformation", "setting": "[1]", "result": "Compound metabolized"}, {"measurement": "Bacterial Biotransformation", "setting": "[13]", "result": "Compound NOT metabolized"}, {"measurement": "Bacterial Biotransformation", "setting": "[9]", "result": "Compound NOT metabolized"}, {"measurement": "Bacterial Biotransformation", "setting": "[2]", "result": "Compound NOT metabolized"}, {"measurement": "Bacterial Biotransformation", "setting": "[5]", "result": "Compound metabolized"}, {"measurement": "Bacterial Biotransformation", "setting": "[11]", "result": "Compound metabolized"}, {"measurement": "Bacterial Biotransformation", "setting": "[12]", "result": "Compound NOT metabolized"}, {"measurement": "Bacterial Biotransformation", "setting": "[7]", "result": "Compound metabolized"}]}
{"compound": "COC1=CC(=O)C[C@@H](C)[C@]12Oc1c(Cl)c(OC)cc(OC)c1C2=O", "note": "[GRISEOFULVIN]", "values": [{"measurement": "Bacterial Biotransformation", "setting": "[8]", "result": "Compound NOT metabolized"}, {"measurement": "Bacterial Biotransformation", "setting": "[15]", "result": "Compound metabolized"}, {"measurement": "Bacterial Biotransformation", "setting": "[13]", "result": "Compound NOT metabolized"}, {"measurement": "Bacterial Biotransformation", "setting": "[2]", "result": "Compound NOT metabolized"}, {"measurement": "Bacterial Biotransformation", "setting": "[10]", "result": "Compound NOT metabolized"}, {"measurement": "Bacterial Biotransformation", "setting": "[6]", "result": "Compound NOT metabolized"}, {"measurement": "Bacterial Biotransformation", "setting": "[11]", "result": "Compound NOT metabolized"}, {"measurement": "Bacterial Biotransformation", "setting": "[12]", "result": "Compound metabolized"}, {"measurement": "Bacterial Biotransformation", "setting": "[7]", "result": "Compound metabolized"}, {"measurement": "Bacterial Biotransformation", "setting": "[14]", "result": "Compound NOT metabolized"}]}
